According to patent US8192962B2, “Processes for detecting toxic substances” (Daikin Industries, Ltd., priority 2001, dated 2012):

Tested on: Metabolism protein genes
Assay: DNA chip mRNA expression in yeast, metabolism protein genes (Table 7)
Format: cell-based, Saccharomyces cerevisiae S288C
Protocol: Yeast (Saccharomyces cerevisiae S288C (α SUC2mal mel gap2 CUP1)) were incubated at 25° C. on YPD medium (yeast extract 1%, polypepton 2%, glucose 2%). One of toxic chemical substances was added to the cells at logarithmic growth phase, and the cells were further incubated for two hours. Cells were cultured without any chemical substance in the same condition, and were used as control. Concentrations of the chemical substances were defined to inhibit the growth of the yeast but not lead to death.
After completion of the incubation, the culture was centrifuged to collect the cells. To the cells, sodium acetate buffer (50 mM sodium acetate, 10 mM EDTA, 1% SDS) was added, and the mixture was shaken at 65° C. for five minutes, followed by returning to room temperature, and obtaining the supernatant, of which the procedures were repeated two times. To the supernatant, ½ amount of a solution of phenol/chloroform was added, and the mixture was centrifuged to give a supernatant, which was added with an equal amount of chloroform, and the mixture was centrifuged to give a supernatant. To the supernatant, an equal amount of isopropanol containing 0.3 M sodium acetate was added, and the mixture was allowed to stand at room temperature for 30 minutes, after which the mixture was centrifuged to give a sediment of the whole RNAs. Seventy % ethanol was added to the sediment, and the mixture was again centrifuged to give a sediment, which was then dried and dissolved in water. mRNA was isolated from the whole RNAs as followings. In view of the fact that a poly A chain is attached to the 3′ terminus of mRNA, a polynucleotide having a poly T structure which was immobilized on the surface of latex beads was used to trap the mRNA, and then the mRNA was washed and eluted with spine column (Oligotex-dT30<Super>mRNA Purification Kit, Takara). Reverse transcription of the mRNA was conducted with a reverse transcriptase (Super Script II Reverse Transcriptase; catalogue No. 18064-014, GibcoBRL) using fluorescence-labeled nucleotides to give cDNAs that were introduced with Cy3-dUTP or Cy5-dUTP during the reverse transcription.
The labeled cDNAs were dissolved in TE buffer (10mM Tris-HCl/1 mM EDTA, pH8.0), and the solution was dropped on the DNA chip containing the whole genes of yeast (DNA Chip Research Inc. Japan) so that the cDNAs were hybridized on the DNA chip at 65° C. for over 12 hours. The fluoresces intensity of the DNA chip was read with a scanner, and the ratio relative to the fluorescence intensity resulting from the absence of chemical substance was estimated as the following, which is shown in Tables 1 to 9: […]

CCCCCCCCCCCCc1ccc(S(=O)(=O)[O-])cc1.[Na+] [(17), sodium dodecylbenzosulfonate]
The level of expressed mRNA in the presence of chemical substance/The level of expressed mRNA in the absence of chemical substance (yeast gene YAL012W): 0.9
The level of expressed mRNA in the presence of chemical substance/The level of expressed mRNA in the absence of chemical substance (yeast gene YAL038W): 1.0
level of expressed mRNA in the presence/in the absence of chemical substance (yeast gene YBR003W): 1.1
level of expressed mRNA in the presence/in the absence of chemical substance (yeast gene YBR011C): 0.8
level of expressed mRNA in the presence/in the absence of chemical substance (yeast gene YBR020W): 0.8
The level of expressed mRNA in the presence of chemical substance/The level of expressed mRNA in the absence of chemical substance (yeast gene YBR023C): 0.7
The level of expressed mRNA in the presence of chemical substance/The level of expressed mRNA in the absence of chemical substance (yeast gene YBR029C): 0.6
The level of expressed mRNA in the presence of chemical substance/The level of expressed mRNA in the absence of chemical substance (yeast gene YBR183W): 1.4
The level of expressed mRNA in the presence of chemical substance/The level of expressed mRNA in the absence of chemical substance (yeast gene YBR222C): 0.8
The level of expressed mRNA in the presence of chemical substance/The level of expressed mRNA in the absence of chemical substance (yeast gene YBR256C): 2.6
The level of expressed mRNA in the presence of chemical substance/The level of expressed mRNA in the absence of chemical substance (yeast gene YCL009C): 1.1
The level of expressed mRNA in the presence of chemical substance/The level of expressed mRNA in the absence of chemical substance (yeast gene YCL064C): 0.3
level of expressed mRNA in the presence/in the absence of chemical substance (yeast gene YCR010C): 1.9
level of expressed mRNA in the presence/in the absence of chemical substance (yeast gene YCR034W): 0.9
The level of expressed mRNA in the presence of chemical substance/The level of expressed mRNA in the absence of chemical substance (yeast gene YCR048W): 1.2
The level of expressed mRNA in the presence of chemical substance/The level of expressed mRNA in the absence of chemical substance (yeast gene YCR098C): 1.7
The level of expressed mRNA in the presence of chemical substance/The level of expressed mRNA in the absence of chemical substance (yeast gene YDR019C): 1.2
level of expressed mRNA in the presence/in the absence of chemical substance (yeast gene YDR050C): 1.1
level of expressed mRNA in the presence/in the absence of chemical substance (yeast gene YDR073W): 1.8
level of expressed mRNA in the presence/in the absence of chemical substance (yeast gene YDR123C): 1.3
level of expressed mRNA in the presence/in the absence of chemical substance (yeast gene YDR178W): 1.2
level of expressed mRNA in the presence/in the absence of chemical substance (yeast gene YDR277C): 1.2
level of expressed mRNA in the presence/in the absence of chemical substance (yeast gene YDR284C): 1.5
level of expressed mRNA in the presence/in the absence of chemical substance (yeast gene YDR345C): 1.3
The level of expressed mRNA in the presence of chemical substance/The level of expressed mRNA in the absence of chemical substance (yeast gene YDR380W): 0.8
level of expressed mRNA in the presence/in the absence of chemical substance (yeast gene YDR400W): 1.1
level of expressed mRNA in the presence/in the absence of chemical substance (yeast gene YDR408C): 1.1
level of expressed mRNA in the presence/in the absence of chemical substance (yeast gene YDR483W): 1.2
The level of expressed mRNA in the presence of chemical substance/The level of expressed mRNA in the absence of chemical substance (yeast gene YDR497C): 1.6
The level of expressed mRNA in the presence of chemical substance/The level of expressed mRNA in the absence of chemical substance (yeast gene YDR502C): 0.9
The level of expressed mRNA in the presence of chemical substance/The level of expressed mRNA in the absence of chemical substance (yeast gene YDR516C): 1.1
level of expressed mRNA in the presence/in the absence of chemical substance (yeast gene YEL063C): 0.7
level of expressed mRNA in the presence/in the absence of chemical substance (yeast gene YER015W): 1.6
The level of expressed mRNA in the presence of chemical substance/The level of expressed mRNA in the absence of chemical substance (yeast gene YER026C): 1.7
The level of expressed mRNA in the presence of chemical substance/The level of expressed mRNA in the absence of chemical substance (yeast gene YER053C): 1.2
The level of expressed mRNA in the presence of chemical substance/The level of expressed mRNA in the absence of chemical substance (yeast gene YER069W): 1.1
level of expressed mRNA in the presence/in the absence of chemical substance (yeast gene YER081W): 1.1
The level of expressed mRNA in the presence of chemical substance/The level of expressed mRNA in the absence of chemical substance (yeast gene YER096W): 1.0
level of expressed mRNA in the presence/in the absence of chemical substance (yeast gene YER120W): 1.2
The level of expressed mRNA in the presence of chemical substance/The level of expressed mRNA in the absence of chemical substance (yeast gene YER178W): 1.1
level of expressed mRNA in the presence/in the absence of chemical substance (yeast gene YFL011W): 0.8
The level of expressed mRNA in the presence of chemical substance/The level of expressed mRNA in the absence of chemical substance (yeast gene YFL014W): 1.5
The level of expressed mRNA in the presence of chemical substance/The level of expressed mRNA in the absence of chemical substance (yeast gene YFL030W): 1.0
The level of expressed mRNA in the presence of chemical substance/The level of expressed mRNA in the absence of chemical substance (yeast gene YFL031W): 1.2
The level of expressed mRNA in the presence of chemical substance/The level of expressed mRNA in the absence of chemical substance (yeast gene YFL056C): 1.0
The level of expressed mRNA in the presence of chemical substance/The level of expressed mRNA in the absence of chemical substance (yeast gene YFL057C): 1.6
The level of expressed mRNA in the presence of chemical substance/The level of expressed mRNA in the absence of chemical substance (yeast gene YFR047C): 1.5
level of expressed mRNA in the presence/in the absence of chemical substance (yeast gene YGL012W): 0.9
The level of expressed mRNA in the presence of chemical substance/The level of expressed mRNA in the absence of chemical substance (yeast gene YGL022W): 0.9
level of expressed mRNA in the presence/in the absence of chemical substance (yeast gene YGL115W): 0.8
The level of expressed mRNA in the presence of chemical substance/The level of expressed mRNA in the absence of chemical substance (yeast gene YGL126W): 0.9
level of expressed mRNA in the presence/in the absence of chemical substance (yeast gene YGL205W): 3.9
The level of expressed mRNA in the presence of chemical substance/The level of expressed mRNA in the absence of chemical substance (yeast gene YGL209W): 1.1
The level of expressed mRNA in the presence of chemical substance/The level of expressed mRNA in the absence of chemical substance (yeast gene YGL248W): 1.1
The level of expressed mRNA in the presence of chemical substance/The level of expressed mRNA in the absence of chemical substance (yeast gene YGR037C): 1.4
The level of expressed mRNA in the presence of chemical substance/The level of expressed mRNA in the absence of chemical substance (yeast gene YGR055W): 0.7
level of expressed mRNA in the presence/in the absence of chemical substance (yeast gene YGR096W): 0.8
level of expressed mRNA in the presence/in the absence of chemical substance (yeast gene YGR191W): 0.8
The level of expressed mRNA in the presence of chemical substance/The level of expressed mRNA in the absence of chemical substance (yeast gene YGR194C): 1.1
level of expressed mRNA in the presence/in the absence of chemical substance (yeast gene YGR204W): 1.0
The level of expressed mRNA in the presence of chemical substance/The level of expressed mRNA in the absence of chemical substance (yeast gene YGR256W): 1.1
The level of expressed mRNA in the presence of chemical substance/The level of expressed mRNA in the absence of chemical substance (yeast gene YGR282C): 1.1
level of expressed mRNA in the presence/in the absence of chemical substance (yeast gene YGR288W): 1.2
level of expressed mRNA in the presence/in the absence of chemical substance (yeast gene YHR025W): 1.0
The level of expressed mRNA in the presence of chemical substance/The level of expressed mRNA in the absence of chemical substance (yeast gene YHR111W): 1.1
level of expressed mRNA in the presence/in the absence of chemical substance (yeast gene YHR123W): 1.1
The level of expressed mRNA in the presence of chemical substance/The level of expressed mRNA in the absence of chemical substance (yeast gene YHR137W): 0.8
The level of expressed mRNA in the presence of chemical substance/The level of expressed mRNA in the absence of chemical substance (yeast gene YHR174W): 1.0
The level of expressed mRNA in the presence of chemical substance/The level of expressed mRNA in the absence of chemical substance (yeast gene YHR176W): 1.4
level of expressed mRNA in the presence/in the absence of chemical substance (yeast gene YHR210C): 1.4
level of expressed mRNA in the presence/in the absence of chemical substance (yeast gene YIL006W): 0.8
The level of expressed mRNA in the presence of chemical substance/The level of expressed mRNA in the absence of chemical substance (yeast gene YIL045W): 1.1
The level of expressed mRNA in the presence of chemical substance/The level of expressed mRNA in the absence of chemical substance (yeast gene YIL107C): 1.2
The level of expressed mRNA in the presence of chemical substance/The level of expressed mRNA in the absence of chemical substance (yeast gene YIL154C): 1.2
The level of expressed mRNA in the presence of chemical substance/The level of expressed mRNA in the absence of chemical substance (yeast gene YIL155C): 1.1
The level of expressed mRNA in the presence of chemical substance/The level of expressed mRNA in the absence of chemical substance (yeast gene YIR034C): 1.0
The level of expressed mRNA in the presence of chemical substance/The level of expressed mRNA in the absence of chemical substance (yeast gene YIR036C): 1.5
The level of expressed mRNA in the presence of chemical substance/The level of expressed mRNA in the absence of chemical substance (yeast gene YJL031C): 1.2
The level of expressed mRNA in the presence of chemical substance/The level of expressed mRNA in the absence of chemical substance (yeast gene YJL068C): 1.4
The level of expressed mRNA in the presence of chemical substance/The level of expressed mRNA in the absence of chemical substance (yeast gene YJL088W): 1.4
The level of expressed mRNA in the presence of chemical substance/The level of expressed mRNA in the absence of chemical substance (yeast gene YJL099W): 1.2
level of expressed mRNA in the presence/in the absence of chemical substance (yeast gene YJL121C): 1.1
level of expressed mRNA in the presence/in the absence of chemical substance (yeast gene YJL167W): 1.4
The level of expressed mRNA in the presence of chemical substance/The level of expressed mRNA in the absence of chemical substance (yeast gene YJL172W): 1.8
level of expressed mRNA in the presence/in the absence of chemical substance (yeast gene YJL216C): 1.2
The level of expressed mRNA in the presence of chemical substance/The level of expressed mRNA in the absence of chemical substance (yeast gene YJL219W): 1.6
level of expressed mRNA in the presence/in the absence of chemical substance (yeast gene YJR077C): 1.0
The level of expressed mRNA in the presence of chemical substance/The level of expressed mRNA in the absence of chemical substance (yeast gene YJR137C): 0.9
level of expressed mRNA in the presence/in the absence of chemical substance (yeast gene YJR143C): 0.7
The level of expressed mRNA in the presence of chemical substance/The level of expressed mRNA in the absence of chemical substance (yeast gene YJR148W): 1.3
